{"source": "patent US20120322661A1", "about": "“Organized Liquid Mixture” (priority 2010, published 2012)", "assay": "Conductivity measurement for micellar entrapment of fomesafen sodium", "assay_type": "physicochemical", "conditions": "aqueous solution", "experimental": "A series of the experiments were conducted to establish that a combination of a sorbitan ester alkoxylate with a vegetable oil ethoxylate provided a stable micellar solubilization of the water soluble herbicide fomesafen sodium. Studies were also designed to confirm that the fomesafen sodium present within the formulation was partitioned between the micro-domains of the aqueous phase and the micellar oil phase.\nThe conductivity of an aqueous solution of fomesafen sodium was measured at different concentrations of fomesafen sodium. The results were plotted on a graph with measured conductivity plotted on Y-axis and the corresponding concentration on the X-axis. It was observed that the conductivity increased with the salt concentration and dropped suddenly above 0.45 g/L. It is believed that at this inflection concentration, fomesafen sodium self-aggregated to form an aggregated structure.\nIn another series of experiments, the formulations according to the present invention exemplified by examples 1 and 2 were tested at various concentrations of fomesafen sodium active ingredients and the resulting conductivity was measured. The results were plotted on a graph with measured conductivity plotted on Y-axis and the corresponding concentration on the X-axis. […]"}
{"smiles": "CS(=O)(=O)N=C([O-])c1cc(Oc2ccc(C(F)(F)F)cc2Cl)ccc1[N+](=O)[O-].[Na+]", "note": "[fomesafen sodium, sodium (EZ)-5-(2-chloro-α,α,α-trifluoro-p-tolyloxy)-N-mesyl-2-nitrobenzenecarboximidate]", "values": [{"measurement": "Concentration above which conductivity dropped suddenly (inflection concentration, self-aggregation)", "result": "above 0.45 g/L"}]}
